Measured values published in article PMC5218480 (PLoS ONE, 2017).

Test system: MV-4-11 cells
Assay: Gene expression microarray analysis (Affymetrix PrimeView) and GSEA
Type: cell-based, human
Design: RFU PODN (11730768_x_at) / Fold change /veh PODN (11730768_x_at) / RFU LINC00158 (11744669_a_at) / Fold change /veh LINC00158 (11744669_a_at) / RFU DUSP10 (11751237_a_at) / Fold change /veh DUSP10 (11751237_a_at) / RFU ID3 (11757404_x_at) / Fold change /veh ID3 (11757404_x_at) / RFU PLEKHG5 (11737974_s_at) / Fold change /veh PLEKHG5 (11737974_s_at) / RFU LRRC4B (11730491_at) / Fold change /veh LRRC4B (11730491_at) / RFU GIMAP4 (11747438_a_at) / Fold change /veh GIMAP4 (11747438_a_at) / RFU KRT8 (11758183_x_at) / Fold change /veh KRT8 (11758183_x_at) / RFU CNN1 (11734310_a_at) / Fold change /veh CNN1 (11734310_a_at) / RFU VPS37D (11726825_at) / Fold change /veh VPS37D (11726825_at) / RFU C10orf10 (11716522_x_at) / Fold change /veh C10orf10 (11716522_x_at) / RFU KIR2DL2 /// KIR2DL4 /// KIR2DL5A /// KIR2DL5B /// KIR2DS1 /// KIR2DS2 /// KIR2DS3 /// KIR2DS4 /// KIR3DL3 /// KIR3DL3 /// KIR3DS1 (11738374_at) / Fold change /veh KIR2DL2 /// KIR2DL4 /// KIR2DL5A /// KIR2DL5B /// KIR2DS1 /// KIR2DS2 /// KIR2DS3 /// KIR2DS4 /// KIR3DL3 /// KIR3DL3 /// KIR3DS1 (11738374_at) / RFU C1QL1 (11718748_at) / Fold change /veh C1QL1 (11718748_at) / RFU TMPRSS4 (11747572_a_at) / Fold change /veh TMPRSS4 (11747572_a_at) / RFU HAMP (11756126_x_at) / Fold change /veh HAMP (11756126_x_at) / RFU RNFT2 (11725882_a_at) / Fold change /veh RNFT2 (11725882_a_at) / RFU NR4A2 (11747474_a_at) / Fold change /veh NR4A2 (11747474_a_at) / RFU ABCC12 (11746883_a_at) / Fold change /veh ABCC12 (11746883_a_at) / RFU TMEM136 (11760407_x_at) / Fold change /veh TMEM136 (11760407_x_at) / RFU CLDN22 /// WWC2 (11732394_at) / Fold change /veh CLDN22 /// WWC2 (11732394_at) / RFU HLA-DPB1 (11760878_x_at) / Fold change /veh HLA-DPB1 (11760878_x_at) / RFU SPINT1 (11716480_a_at) / Fold change /veh SPINT1 (11716480_a_at) / RFU GAP43 (11754022_s_at) / Fold change /veh GAP43 (11754022_s_at) / RFU A4GNT (11735810_at) / Fold change /veh A4GNT (11735810_at) / RFU PRB3 (11715151_x_at) / Fold change /veh PRB3 (11715151_x_at) / RFU TUBB4B (11761932_at) / Fold change /veh TUBB4B (11761932_at) / RFU CAPN14 (11732068_a_at) / Fold change /veh CAPN14 (11732068_a_at) / RFU TMCC2 (11721928_a_at) / Fold change /veh TMCC2 (11721928_a_at) / RFU IRGQ (11745062_a_at) / Fold change /veh IRGQ (11745062_a_at) / RFU FAM174B (11720279_a_at) / Fold change /veh FAM174B (11720279_a_at) / RFU TMPRSS4 (11748680_a_at) / Fold change /veh TMPRSS4 (11748680_a_at) / RFU FAM212B (11763350_a_at) / Fold change /veh FAM212B (11763350_a_at) / RFU PLEKHG5 (11743358_a_at) / Fold change /veh PLEKHG5 (11743358_a_at) / RFU ZSCAN30 (11745921_a_at) / Fold change /veh ZSCAN30 (11745921_a_at) / RFU CMKLR1 (11741424_a_at) / Fold change /veh CMKLR1 (11741424_a_at) / RFU LOC101060620 /// MAPK8IP1 (11723275_at) / Fold change /veh LOC101060620 /// MAPK8IP1 (11723275_at) / RFU SPTSSB (11747773_x_at) / Fold change /veh SPTSSB (11747773_x_at) / RFU PRSS12 (11739890_at) / Fold change /veh PRSS12 (11739890_at) / RFU BIN1 (11741810_x_at) / Fold change /veh BIN1 (11741810_x_at) / RFU WNT11 (11732464_a_at) / Fold change /veh WNT11 (11732464_a_at) / RFU C10orf10 (11716521_a_at) / Fold change /veh C10orf10 (11716521_a_at) / RFU C5orf56 (11738089_at) / Fold change /veh C5orf56 (11738089_at) / RFU CYB561 (11721691_x_at) / Fold change /veh CYB561 (11721691_x_at) / RFU ANKRD19P (11752326_a_at) / Fold change /veh ANKRD19P (11752326_a_at) / RFU OR2T12 /// OR2T33 /// OR2T8 (11738714_s_at) / Fold change /veh OR2T12 /// OR2T33 /// OR2T8 (11738714_s_at) / RFU VCAN (11748164_a_at) / Fold change /veh VCAN (11748164_a_at) / RFU JSRP1 (11732532_at) / Fold change /veh JSRP1 (11732532_at) / RFU KRTAP10-11 (11738290_x_at) / Fold change /veh KRTAP10-11 (11738290_x_at) / RFU MYO3A (11730013_a_at) / Fold change /veh MYO3A (11730013_a_at) / RFU EBF3 (11725865_a_at) / Fold change /veh EBF3 (11725865_a_at) / RFU CAMK2N1 (11719241_x_at) / Fold change /veh CAMK2N1 (11719241_x_at) / RFU C5orf56 (11738088_a_at) / Fold change /veh C5orf56 (11738088_a_at) / RFU OLFML3 (11715873_a_at) / Fold change /veh OLFML3 (11715873_a_at) / RFU LOC100653217 /// NTM (11731650_a_at) / Fold change /veh LOC100653217 /// NTM (11731650_a_at) / RFU MAPK11 (11762145_a_at) / Fold change /veh MAPK11 (11762145_a_at) / RFU FIZ1 (11724087_x_at) / Fold change /veh FIZ1 (11724087_x_at) / RFU OASL (11726364_x_at) / Fold change /veh OASL (11726364_x_at) / RFU SOX15 (11748057_x_at) / Fold change /veh SOX15 (11748057_x_at) / RFU CD79A (11719716_a_at) / Fold change /veh CD79A (11719716_a_at) / RFU HIST1H1D (11736915_at) / Fold change /veh HIST1H1D (11736915_at) / RFU CASKIN2 (11723855_a_at) / Fold change /veh CASKIN2 (11723855_a_at) / RFU LOC730098 (11760151_x_at) / Fold change /veh LOC730098 (11760151_x_at) / RFU OR4N2 (11742367_at) / Fold change /veh OR4N2 (11742367_at) / RFU PRRT2 (11749266_a_at) / Fold change /veh PRRT2 (11749266_a_at) / RFU SNX32 (11753110_a_at) / Fold change /veh SNX32 (11753110_a_at) / RFU CDHR5 (11726645_a_at) / Fold change /veh CDHR5 (11726645_a_at) / RFU RCAN1 (11760418_a_at) / Fold change /veh RCAN1 (11760418_a_at) / RFU FAM167A (11723789_a_at) / Fold change /veh FAM167A (11723789_a_at) / RFU FAM26E (11764081_at) / Fold change /veh FAM26E (11764081_at) / RFU ISYNA1 (11749810_s_at) / Fold change /veh ISYNA1 (11749810_s_at) / RFU ACY1 (11761880_at) / Fold change /veh ACY1 (11761880_at) / RFU 11764098_at / Fold change /veh 11764098_at / RFU SAMD14 (11745864_x_at) / Fold change /veh SAMD14 (11745864_x_at) / RFU NPB (11741838_a_at) / Fold change /veh NPB (11741838_a_at) / RFU TMPRSS6 (11731388_a_at) / Fold change /veh TMPRSS6 (11731388_a_at) / RFU KRTAP10-2 (11738614_at) / Fold change /veh KRTAP10-2 (11738614_at) / RFU ARHGAP8 /// PRR5-ARHGAP8 (11727945_x_at) / Fold change /veh ARHGAP8 /// PRR5-ARHGAP8 (11727945_x_at) / RFU KRTAP5-7 /// NADSYN1 (11734609_at) / Fold change /veh KRTAP5-7 /// NADSYN1 (11734609_at) / RFU RASL12 (11751679_a_at) / Fold change /veh RASL12 (11751679_a_at) / RFU CDKN2B (11736163_a_at) / Fold change /veh CDKN2B (11736163_a_at) / RFU PRF1 (11729649_at) / Fold change /veh PRF1 (11729649_at) / RFU, ZNF638 /// ZNF638-IT1 / Fold change vs veh, ZNF638 /// ZNF638-IT1 / RFU, PANK3 / Fold change vs veh, PANK3 / RFU, SH3YL1 / Fold change vs veh, SH3YL1 / RFU, ZEB2 / Fold change vs veh, ZEB2 / RFU, NRIP1 / Fold change vs veh, NRIP1 / RFU, PTTG1IP / Fold change vs veh, PTTG1IP / RFU, CAPN2 / Fold change vs veh, CAPN2 / RFU, MED14 / Fold change vs veh, MED14 / RFU, SNORA58 / Fold change vs veh, SNORA58 / RFU, C1orf63 / Fold change vs veh, C1orf63 / RFU, LRRFIP1 / Fold change vs veh, LRRFIP1 / RFU, NDUFAF7 / Fold change vs veh, NDUFAF7 / RFU, SLC12A2 / Fold change vs veh, SLC12A2 / RFU, IBTK / Fold change vs veh, IBTK / RFU, ESF1 / Fold change vs veh, ESF1 / Fold change vs veh, TMEM50B / RFU, TAOK1 / Fold change vs veh, TAOK1 / RFU, ACBD3 / Fold change vs veh, ACBD3 / RFU, TMA16 / Fold change vs veh, TMA16 / RFU, RWDD3 / Fold change vs veh, RWDD3 / RFU, BCAT1 / Fold change vs veh, BCAT1 / RFU, EDEM3 / Fold change vs veh, EDEM3 / RFU, TMEM33 / Fold change vs veh, TMEM33 / RFU, WDR75 / Fold change vs veh, WDR75 / RFU, AHCTF1 / Fold change vs veh, AHCTF1 / RFU, TFRC / Fold change vs veh, TFRC / RFU, ZDHHC17 / Fold change vs veh, ZDHHC17 / RFU, NOM1 / Fold change vs veh, NOM1 / RFU, ARL8B / Fold change vs veh, ARL8B / RFU, ZBTB11 / Fold change vs veh, ZBTB11 / RFU, TAMM41 / Fold change vs veh, TAMM41 / RFU, KIAA1704 /// LOC100996395 / Fold change vs veh, KIAA1704 /// LOC100996395 / RFU, ING1 / Fold change vs veh, ING1 / RFU, TRMT61B / Fold change vs veh, TRMT61B / RFU, FUBP3 / Fold change vs veh, FUBP3 / RFU, TP53 / Fold change vs veh, TP53 / RFU, TNKS2 / Fold change vs veh, TNKS2 / RFU, ZFP14 / Fold change vs veh, ZFP14 / RFU, ACTR2 / Fold change vs veh, ACTR2 / RFU, PPP3R1 / Fold change vs veh, PPP3R1 / RFU, PIK3R1 / Fold change vs veh, PIK3R1 / RFU, HNRNPA1 / Fold change vs veh, HNRNPA1 / RFU, RNF170 / Fold change vs veh, RNF170 / RFU, ZNF28 / Fold change vs veh, ZNF28 / RFU, RNGTT / Fold change vs veh, RNGTT / RFU, OGT / Fold change vs veh, OGT / RFU, BRD1 / Fold change vs veh, BRD1 / RFU, MARS / Fold change vs veh, MARS / RFU, ZNF655 / Fold change vs veh, ZNF655 / RFU, FAHD1 / Fold change vs veh, FAHD1 / RFU, BDP1 / Fold change vs veh, BDP1 / RFU, LRRCC1 / Fold change vs veh, LRRCC1 / RFU, ARID1A / Fold change vs veh, ARID1A / RFU, ZNF146 / Fold change vs veh, ZNF146 / RFU, ZNF330 / Fold change vs veh, ZNF330 / RFU, GPN3 / Fold change vs veh, GPN3 / RFU, C9orf123 / Fold change vs veh, C9orf123 / RFU, N4BP2L2 / Fold change vs veh, N4BP2L2 / RFU, ARFIP1 / Fold change vs veh, ARFIP1 / RFU, FAM179B / Fold change vs veh, FAM179B / RFU, BCL10 / Fold change vs veh, BCL10 / RFU, UHRF1BP1L / Fold change vs veh, UHRF1BP1L / RFU, BET1 / Fold change vs veh, BET1 / RFU, CNOT2 / Fold change vs veh, CNOT2 / RFU, ZNF268 / Fold change vs veh, ZNF268 / Fold change vs veh, ZNF507 / RFU, DGCR2 / Fold change vs veh, DGCR2 / RFU, WDSUB1 / Fold change vs veh, WDSUB1 / Fold change vs veh, HSP90B1 /// MIR3652 / RFU, ADSS / Fold change vs veh, ADSS / RFU, GK / Fold change vs veh, GK / RFU, ZNF148 / Fold change vs veh, ZNF148 / RFU, TAF9 / Fold change vs veh, TAF9 / RFU, SLC1A5 / Fold change vs veh, SLC1A5 / RFU, SLMO2 / Fold change vs veh, SLMO2 / RFU, ABCC4 / Fold change vs veh, ABCC4 / RFU, LOC101060439 /// RAP1B / Fold change vs veh, LOC101060439 /// RAP1B / RFU, RFX7 / Fold change vs veh, RFX7 / RFU, GTPBP10 / Fold change vs veh, GTPBP10 / RFU, CNEP1R1 / Fold change vs veh, CNEP1R1 / RFU, BIVM-ERCC5 /// ERCC5 / Fold change vs veh, BIVM-ERCC5 /// ERCC5 / RFU, ILF3 / Fold change vs veh, ILF3 / RFU 11762660_at / Fold change /veh 11762660_at / RFU VCAN (11757783_s_at) / Fold change /veh VCAN (11757783_s_at) / RFU DDX43 (11728927_at) / Fold change /veh DDX43 (11728927_at) / RFU KRT8 (11758188_x_at) / Fold change /veh KRT8 (11758188_x_at) / RFU NKD1 (11759106_at) / Fold change /veh NKD1 (11759106_at) / RFU SRD5A1 (11742802_a_at) / Fold change /veh SRD5A1 (11742802_a_at) / RFU TPSAB1 /// TPSB2 (11721975_s_at) / Fold change /veh TPSAB1 /// TPSB2 (11721975_s_at) / RFU GSTM3 (11746129_a_at) / Fold change /veh GSTM3 (11746129_a_at) / RFU IL23R (11737362_x_at) / Fold change /veh IL23R (11737362_x_at) / RFU TMEM51 (11727254_a_at) / Fold change /veh TMEM51 (11727254_a_at) / RFU PIWIL2 (11732686_x_at) / Fold change /veh PIWIL2 (11732686_x_at) / RFU ORM1 (11744905_x_at) / Fold change /veh ORM1 (11744905_x_at) / RFU CCDC152 (11743942_at) / Fold change /veh CCDC152 (11743942_at) / RFU ECM1 (11717891_a_at) / Fold change /veh ECM1 (11717891_a_at) / RFU IL23R (11748794_a_at) / Fold change /veh IL23R (11748794_a_at) / RFU TNFAIP8L3 (11732012_x_at) / Fold change /veh TNFAIP8L3 (11732012_x_at) / RFU MBOAT4 (11741988_at) / Fold change /veh MBOAT4 (11741988_at) / RFU 11764193_at / Fold change /veh 11764193_at / RFU TMEM53 (11763286_at) / Fold change /veh TMEM53 (11763286_at) / RFU MAGEB2 (11727129_at) / Fold change /veh MAGEB2 (11727129_at) / RFU TMEM200A (11744735_a_at) / Fold change /veh TMEM200A (11744735_a_at) / RFU CCDC152 (11751479_a_at) / Fold change /veh CCDC152 (11751479_a_at) / RFU FAM211A (11726209_a_at) / Fold change /veh FAM211A (11726209_a_at) / RFU RGS16 (11746705_a_at) / Fold change /veh RGS16 (11746705_a_at) / RFU VCAN (11755009_s_at) / Fold change /veh VCAN (11755009_s_at) / RFU RHOB (11743442_s_at) / Fold change /veh RHOB (11743442_s_at) / RFU RGS16 (11720943_a_at) / Fold change /veh RGS16 (11720943_a_at) / RFU RGS16 (11720944_at) / Fold change /veh RGS16 (11720944_at) / RFU, VPS4B / Fold change vs veh, VPS4B / RFU, CREB1 / Fold change vs veh, CREB1 / RFU, DNAJC13 / Fold change vs veh, DNAJC13 / RFU, GNAQ / Fold change vs veh, GNAQ / RFU, CDK5R1 / Fold change vs veh, CDK5R1 / RFU, ZRANB3 / Fold change vs veh, ZRANB3 / RFU, CUL4A / Fold change vs veh, CUL4A / RFU, CCNY / Fold change vs veh, CCNY / RFU, UFL1 / Fold change vs veh, UFL1 / RFU, COG3 / Fold change vs veh, COG3 / RFU, DIAPH2 / Fold change vs veh, DIAPH2 / RFU, SKA2 / Fold change vs veh, SKA2 / RFU, AFF3 / Fold change vs veh, AFF3 / RFU, LMF1 / Fold change vs veh, LMF1 / RFU, IPO11 / Fold change vs veh, IPO11 / RFU, DFFB / Fold change vs veh, DFFB / RFU, FOXP1 / Fold change vs veh, FOXP1 / RFU, CARD8 / Fold change vs veh, CARD8 / RFU, STRN3 / Fold change vs veh, STRN3 / RFU, ADK / Fold change vs veh, ADK / RFU, RASSF2 / Fold change vs veh, RASSF2 / RFU, WIPF1 / Fold change vs veh, WIPF1 / RFU, LARP1B / Fold change vs veh, LARP1B / RFU, RASA1 / Fold change vs veh, RASA1 / RFU, RB1 / Fold change vs veh, RB1 / RFU, PPFIA1 / Fold change vs veh, PPFIA1 / RFU, MAT2A / Fold change vs veh, MAT2A / RFU, CCT5 / Fold change vs veh, CCT5 / RFU, WDR92 / Fold change vs veh, WDR92 / RFU, CUX1 / Fold change vs veh, CUX1 / RFU, TTC7A / Fold change vs veh, TTC7A / RFU, TMEM135 / Fold change vs veh, TMEM135 / RFU, DEPTOR / Fold change vs veh, DEPTOR / RFU, CPM / Fold change vs veh, CPM / RFU, DNAJB6 / Fold change vs veh, DNAJB6 / RFU, CACNA2D3 / Fold change vs veh, CACNA2D3 / RFU, DTX4 / Fold change vs veh, DTX4 / RFU, TFCP2 / Fold change vs veh, TFCP2 / RFU, GMCL1 /// GMCL1P1 / Fold change vs veh, GMCL1 /// GMCL1P1 / RFU, AEBP2 / Fold change vs veh, AEBP2 / RFU, SNHG1 /// SNORD22 /// SNORD25 /// SNORD26 /// SNORD27 /// SNORD28 /// SNORD29 /// SNORD31 / Fold change vs veh, SNHG1 /// SNORD22 /// SNORD25 /// SNORD26 /// SNORD27 /// SNORD28 /// SNORD29 /// SNORD31 / Fold change (Aza/veh), C12orf56 (ProbeSet 11735607_a_at) / Fold change (ACY-1035/veh), C12orf56 (ProbeSet 11735607_a_at) / Fold change (Aza/veh), FGFR1OP (ProbeSet 11751329_s_at) / Fold change (ACY-1035/veh), FGFR1OP (ProbeSet 11751329_s_at) / Fold change (Aza/veh), VPS36 (ProbeSet 11739960_a_at) / Fold change (ACY-1035/veh), VPS36 (ProbeSet 11739960_a_at) / RFU SYPL1 (11715823_x_at) / Fold change /veh SYPL1 (11715823_x_at) / RFU IGFBP7 (11715501_s_at) / Fold change /veh IGFBP7 (11715501_s_at) / RFU REEP3 (11722064_at) / Fold change /veh REEP3 (11722064_at) / RFU IGLL1 (11728026_x_at) / Fold change /veh IGLL1 (11728026_x_at): dose or concentration left out as unconfirmed
Details: ProbeSet 11723141_at; LIST B

Compound: Nc1ncn([C@@H]2O[C@H](CO)[C@@H](O)[C@H]2O)c(=O)n1 [azacitidine]
- RFU, ZBTB11: 125.26 RFU
